The values that follow come from patent publication US11053226B2, “KRAS G12C inhibitors and methods of using the same” (Amgen Inc., priority 2018, dated 2021).

A word on the IC50: it is the concentration that gives 50% inhibition.

Read-outs that look alike come from different tables or passages of the source. A value given as a limit tells only on which side of the number the result lay.

For test [1], the system named is Phosphorylation of ERK1/2 in A549 cells. Nature of the test: Phospho-ERK1/2 MSD Assay (A549). The class given is cell-based.
The subject of test [2] is Phosphorylation of ERK1/2 in MIA PaCa-2 cells. Nature of the test: Phospho-ERK1/2 MSD Assay. In kind it is cell-based. The following applies: MiaPaCa-2 cells.
The target of test [3] is GDP-bound KRAS protein (aa 1-169), containing both G12C and C118A amino acid substitutions (Homo sapiens (Human), UniProt P01116, C118A/G12C). Nature of the test: Coupled Nucleotide Exchange Assay. In kind it is biochemical. As for the experimental part: For compounds in Table 9, the following assay conditions were employed:
Coupled Nucleotide Exchange Assay:
The assay plates were then read on a PerkinElmer EnVision Multilabel Reader, using AlphaScreen® technology, and data were analyzed using a 4-parameter logistic model to calculate IC50 values.

[4] abbreviates: Homo sapiens, A549, 4 h, read-out: pERK IC50 (4 h, A549), 4 h compound treatment.
Setting [5] is: Homo sapiens, MIA PaCa-2, 4 h, read-out: pERK IC50 (4 h, MiaPaCa-2), 4 h compound treatment.
Setting [6] is: read-out: Coupled Exchange IC50 (2 h), 2 h compound pre-incubation.
Where [7] appears, read: read-out: Coupled Exchange IC50 (20 h), 20 h compound pre-incubation.
Setting [8] is: Homo sapiens, read-out: pERK IC50 (4 h), 4 h compound treatment.
The mark [9] stands for this setting: Homo sapiens, MIA PaCa-2, read-out: pERK IC50 (4 h), 4 h compound treatment.
[10] abbreviates: read-out: pERK IC50 (4 h, A549), 4 h compound treatment.
Setting [11] is: read-out: pERK IC50 (4 h, MiaPaCa-2), 4 h compound treatment.
Setting [12] is: read-out: Coupled Exchange IC50 (5 min), 5 min compound pre-incubation.

Chain of GDP-bound KRAS protein (aa 1-169), containing both G12C and C118A amino acid substitutions (P01116 other isoform, or with tags, fused parts or gaps G12C/C118A): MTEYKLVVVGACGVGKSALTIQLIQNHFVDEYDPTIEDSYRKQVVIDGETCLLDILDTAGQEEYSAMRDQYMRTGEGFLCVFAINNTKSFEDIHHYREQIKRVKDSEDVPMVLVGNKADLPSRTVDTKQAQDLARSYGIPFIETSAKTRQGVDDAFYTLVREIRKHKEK

For `C=CC(=O)N1CC(NC(=O)Cn2cc(C(=O)N3CCc4c(cccc4OC)C3)c3cc(Cl)cc(Cl)c32)C1` [Example 69], the IC50 was > 100000 nM in test [1] (setting [4]), 9390 nM in test [2] (setting [5]), 190 nM in test [3] (setting [6]) and 130 nM in test [3] (setting [7]).

`C=CC(=O)N1CC(NC(=O)Cn2cc(-c3cccc4ccccc34)c3cc(Br)cc(C)c32)C1` [Example 110]: the IC50 in test [1] (setting [8]) was determined as 42100 nM; in test [2] (setting [9]) it was 24900 nM; in test [3] (setting [6]) it was 4390 nM; in test [3] (setting [7]), 1200 nM.

On to `C=CC(=O)N1CC(NC(=O)Cn2c(C)c(C(=O)N3CCc4c(cccc4OC)C3)c3cc([N+](=O)[O-])ccc32)C1` [Example 17], for which the IC50 in test [1] (setting [10]) was > 100000 nM; in test [2] (setting [11]), 1830 nM; in test [3] (setting [6]) it was 1220 nM; in test [3] (setting [7]), 300 nM.

In the case of `C=CC(=O)N1CC(NC(=O)Cn2c3ccc(Br)cc3c3ccc(Oc4ccccn4)nc32)C1` [Example 57], the IC50 in test [1] (setting [8]) is > 100000 nM; in test [2] (setting [9]) it was 6810 nM; in test [3] (setting [6]) it was 990 nM; in test [3] (setting [7]) it was 140 nM.

On to `C=CC(=O)N1CC(N(C)C(=O)Cn2c(C)c(C(=O)N3CCN(c4ccc([N+](=O)[O-])cn4)CC3)c3cc(Br)ccc32)C1` [Example 38], for which the IC50 in test [1] (setting [4]) was > 100000 nM; in test [2] (setting [5]), 3330 nM; in test [3] (setting [6]) it was 760 nM; in test [3] (setting [7]), 220 nM.

Take `C=CC(=O)N1CC(NC(=O)Cn2c3ccccc3c3c(Br)cccc32)C1` [Example 117]: the IC50 is > 100000 nM in test [1] (setting [8]), 29600 nM in test [2] (setting [9]), 2050 nM in test [3] (setting [6]) and 430 nM in test [3] (setting [7]).

Take `C=CC(=O)N1CC(NC(=O)Cn2c(C)c(-c3ccccc3CC)c3cc(Cl)ccc32)C1` [Example 54]: the IC50 in test [1] (setting [8]) was > 33300 nM; in test [2] (setting [9]), 5880 nM; in test [3] (setting [12]), 4370 nM; in test [3] (setting [6]), 650 nM; in test [3] (setting [7]) it was 200 nM.

For the compound `C=CC(=O)N1CC(NC(=O)Cn2c3ccc(Br)cc3c3c(Cl)ccnc32)C1` [Example 75], the IC50 is > 100000 nM in test [1] (setting [8]), 11300 nM in test [2] (setting [9]), 3730 nM in test [3] (setting [6]) and 430 nM in test [3] (setting [7]).

Take `C=CC(=O)N1CC(NC(=O)Cn2cc(C(=O)NCC(CC)Oc3cccc(Cl)c3)c3cc(Br)ccc32)C1` (centres unmarked) [Example 152]: the IC50 came out at 68800 nM in test [1] (setting [4]), 51600 nM in test [2] (setting [5]), 1800 nM in test [3] (setting [6]) and 470 nM in test [3] (setting [7]).

As to `C=CC(=O)N1CC(NC(=O)Cn2cc(C(=O)NCCc3ccc(Cl)cc3Cl)c3cc(Br)ccc32)C1` [Example 161], the IC50 in test [1] (setting [4]) is > 100000 nM; in test [2] (setting [5]), 79500 nM; in test [3] (setting [6]), 990 nM; in test [3] (setting [7]) it was 230 nM.

Take `C=CC(=O)N1CC(NC(=O)Cn2cc(I)c3cc(Cl)ccc32)C1` [Example 139]: the IC50 in test [1] (setting [8]) is > 100000 nM; in test [2] (setting [9]), 40600 nM; in test [3] (setting [12]) it was > 250000 nM; in test [3] (setting [6]), 4150 nM; in test [3] (setting [7]), 520 nM.

For the compound `C=CC(=O)N1CC(NC(=O)Cn2c(C)c(-c3cncnc3C3CC3)c3cc(Cl)ccc32)C1` [Example 30], the IC50 is > 100000 nM in test [1] (setting [8]), 2680 nM in test [2] (setting [9]) and 2320 nM in test [3] (setting [6]).

For the compound `C=CC(=O)N1CC(NC(=O)Cn2c(C)c(C(=O)N3[C@H](C)CN(c4ccc(C#N)cn4)C[C@H]3C)c3cc(Br)ccc32)C1` [Example 22], the IC50 is > 100000 nM in test [1] (setting [4]), 2020 nM in test [2] (setting [5]) and 190 nM in test [3] (setting [6]).

In the case of `C=CC(=O)N1CC(NC(=O)Cn2c(C)c(-c3ccccc3N3CCCC3)c3cc(Cl)ccc32)C1` [Example 5-4, 2-(5-Chloro-2-methyl-3-(2-(1-pyrrolidinyl)phenyl)-1H-indol-1-yl)-N-(1-(2-propenoyl)-3-azetidinyl)acetamide], the IC50 in test [1] (setting [8]) is > 100000 nM; in test [2] (setting [9]), 5490 nM; in test [3] (setting [6]), 380 nM.

As to `C=CC(=O)N1CC(N(C)C(=O)Cn2cc(I)c3cc(Br)ccc32)C1` [Example 43], the IC50 is > 33300 nM in test [1] (setting [8]); 3820 nM in test [2] (setting [9]); 36600 nM in test [3] (setting [12]); 4650 nM in test [3] (setting [6]); 440 nM in test [3] (setting [7]).

As for `C=CC(=O)N1CC(N(C)C(=O)Cn2cc(C(=O)N3CCc4c(cccc4OC)C3)c3cc(Br)ccc32)C1` [Example 107], the IC50 in test [1] (setting [4]) was > 100000 nM; in test [2] (setting [5]), 23100 nM; in test [3] (setting [6]), 590 nM; in test [3] (setting [7]), 180 nM.

Regarding `C=CC(=O)N1CC(NC(=O)Cn2c(C3CC3)c(C(=O)N3CCOC4(CCC4)C3)c3cc(Cl)cc(C)c32)C1` [Example 1-6, 2-(5-Chloro-2-cyclopropyl-7-methyl-3-(5-oxa-8-azaspiro[3.5]nonan-8-ylcarbonyl)-1H-indol-1-yl)-N-(1-(2-propenoyl)-3-azetidinyl)acetamide], the IC50 in test [1] (setting [4]) was > 100000 nM; in test [2] (setting [5]), 670 nM; in test [3] (setting [6]) it was 720 nM.

As for `C=CC(=O)N1CC(NC(=O)Cn2c(C3CC3)c(C(=O)N3CCOC(C)(C)C3)c3cc(Cl)cc(C)c32)C1` [Example 23], the results for the IC50 in test [1] (setting [4]), in test [2] (setting [5]) and in test [3] (setting [6]) were > 100000 nM, 2350 nM and 950 nM, respectively.

`C=CC(=O)N1CC(NC(=O)Cn2cc(C(=O)N3CCc4ccc(C)cc4C3)c3cc(Br)ccc32)C1` [Example 122]: the IC50 in test [1] (setting [4]) is > 100000 nM; in test [2] (setting [5]), 31400 nM; in test [3] (setting [6]) it was 690 nM; in test [3] (setting [7]), 170 nM.

Take `COc1cccc2c1CCN(C(=O)c1cn(CC(=O)NC3CN(C(=O)/C=C/CN(C)C)C3)c3ccc(Br)cc13)C2` [Example 149]: the IC50 in test [1] (setting [4]) is > 100000 nM; in test [2] (setting [5]), 50700 nM; in test [3] (setting [6]) it was 3600 nM; in test [3] (setting [7]) it was 680 nM.

As to `C=CC(=O)N1CC(NC(=O)Cn2cc(C(=O)N3CCc4c(C)cccc4C3)c3cc(Cl)cc(Cl)c32)C1` [Example 74], the IC50 was > 100000 nM in test [1] (setting [4]), 11100 nM in test [2] (setting [5]), 220 nM in test [3] (setting [6]) and 170 nM in test [3] (setting [7]).

For `C=CC(=O)N1CC(NC(=O)Cn2c(C)c(C(=O)N3CCc4c(cccc4OC)C3)c3cc(Br)cc(C)c32)C1` [Example 2-1, 2-(5-Bromo-3-((5-methoxy-3,4-dihydro-2(1H)-isoquinolinyl)carbonyl)-2,7-dimethyl-1H-indol-1-yl)-N-(1-(2-propenoyl)-3-azetidinyl)acetamide], the IC50 was > 100000 nM in test [1] (setting [4]), 300 nM in test [2] (setting [5]), 110 nM in test [3] (setting [6]) and 110 nM in test [3] (setting [7]).

Regarding `C=CC(=O)N1CC(NC(=O)Cn2c(C(=O)OC)c(I)c3cc(Br)ccc32)C1` [Example 111], the IC50 in test [1] (setting [8]) was > 100000 nM; in test [2] (setting [9]), 25400 nM; in test [3] (setting [6]), 1980 nM; in test [3] (setting [7]), 350 nM.

With `C=CC(=O)N1CC(NC(=O)Cn2c(C(=O)NCc3ccccc3CN(C)C)cc3cc(Br)ccc32)C1` [Example 88], the IC50 is > 100000 nM in test [1] (setting [8]), 14900 nM in test [2] (setting [9]), 3260 nM in test [3] (setting [6]) and 720 nM in test [3] (setting [7]).

Turning to `C=CC(=O)N1CC(NC(=O)Cn2c3c(c4cc([N+](=O)[O-])ccc42)CCCC3)C1` [Example 143], the IC50 in test [1] (setting [10]) is > 100000 nM; in test [2] (setting [11]), 44900 nM; in test [3] (setting [6]), 4530 nM; in test [3] (setting [7]), 850 nM.

In the case of `C=CC(=O)N1CC(NC(=O)Cn2c(C)c(-c3cccc4nc(C)ccc34)c3cc(Cl)ccc32)C1` [Example 101], the IC50 turned out to be 56800 nM in test [1] (setting [8]), 20300 nM in test [2] (setting [9]) and 1110 nM in test [3] (setting [6]).
